Laboratory results taken from PubChem BioAssay AID328 (DTP/NCI, 2004).
Several values for one entry are separate records, joined by “and”; a condition that tells them apart may be missing. Equal entries are not always repeated. Inconclusive results and toxic doses are left out. Residues, ends and D or L forms follow the SMILES beside them. *: point of attachment. Cbz = O=C(OCc1ccccc1)*; OtBu = CC(C)(C)O*

Tested on: BDF1 mice, P388 leukemia ip, median survival T/C
Assay: NCI In Vivo Anticancer Drug Screen. Data for tumor model P388 Leukemia (intraperitoneal) in B6D2F1 (BDF1) mice
Settings: endpoint: median survival time, higher = longer survival
How it was run: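 Compound-treated tumour-bearing mice were compared with vehicle-treated controls. Survival was recorded, and the value is the treated-group measurement divided by the control-group measurement (T/C).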

[1] = dose: 12.5 mg/kg/injection, schedule: Q01DX009 (ip), vehicle: saline with Tween-80
[2] = dose: 100.0 mg/kg/injection, schedule: Q01DX009 (ip), vehicle: saline with Tween-80
[3] = dose: 100.0 mg/kg/injection, schedule: Q04DX003 (ip), vehicle: saline
[4] = dose: 200.0 mg/kg/injection, schedule: Q01DX009 (ip), vehicle: saline with Tween-80
[5] = dose: 200.0 mg/kg/injection, schedule: Q04DX003 (ip), vehicle: saline
[6] = dose: 50.0 mg/kg/injection, schedule: Q01DX009 (ip), vehicle: saline with Tween-80
[7] = dose: 20.0 mg/kg/injection, schedule: Q01DX009 (ip), vehicle: saline
[8] = dose: 200.0 mg/kg/injection, schedule: Q01DX009 (ip), vehicle: Klucel (hydroxypropylcellulose) (HPC)
[9] = dose: 100.0 mg/kg/injection, schedule: Q04DX003 (ip), vehicle: saline with Tween-80
[10] = dose: 200.0 mg/kg/injection, schedule: Q04DX003 (ip), vehicle: saline with Tween-80
[11] = dose: 400.0 mg/kg/injection, schedule: Q04DX003 (ip), vehicle: saline with Tween-80
[12] = dose: 25.0 mg/kg/injection, schedule: Q01DX009 (ip), vehicle: saline with Tween-80

Compound: CC[n+]1c(-c2ccccc2)c2cc(N)ccc2c2ccc(N)cc21
- T/C (dose: 1.56 mg/kg/injection, schedule: Q01DX009 (ip), vehicle: saline): 151 % of control
- T/C (dose: 3.13 mg/kg/injection, schedule: Q01DX009 (ip), vehicle: saline): 178 % of control
- T/C (dose: 5.0 mg/kg/injection, schedule: Q01DX010 (ip), vehicle: saline): 155 % of control
- T/C (dose: 5.3 mg/kg/injection, schedule: Q01DX009 (ip), vehicle: saline): 208 % of control
- T/C (dose: 6.25 mg/kg/injection, schedule: Q01DX009 (ip), vehicle: saline): 163 % of control
- T/C (dose: 6.25 mg/kg/injection, schedule: Q01DX009 (ip), vehicle: water): 163 % of control
- T/C (dose: 8.0 mg/kg/injection, schedule: Q01DX009 (ip), vehicle: saline): 198 % of control and 222 % of control
- T/C (dose: 12.0 mg/kg/injection, schedule: Q01DX009 (ip), vehicle: saline): 227 % of control and 196 % of control
- T/C [1]: 113 % of control
- T/C (dose: 12.5 mg/kg/injection, schedule: Q01DX009 (ip), vehicle: water): 113 % of control
- T/C (dose: 20.0 mg/kg/injection, schedule: Q01DX010 (ip), vehicle: saline): 114 % of control and 120 % of control
- T/C (dose: 27.0 mg/kg/injection, schedule: Q01DX009 (ip), vehicle: saline): 97 % of control

Compound: NC(=O)CC(N)c1nn[nH]n1 (stereo not given)
- T/C (dose: 100.0 mg/kg/injection, schedule: Q01DX009 (ip), vehicle: saline): 95 % of control
- T/C (dose: 200.0 mg/kg/injection, schedule: Q01DX009 (ip), vehicle: saline): 100 % of control
- T/C (dose: 400.0 mg/kg/injection, schedule: Q01DX009 (ip), vehicle: saline): 90 % of control

Compound: C=CCN1C(=O)CN=C1SC(=O)Nc1ccc(Cl)cc1
- T/C (dose: 50.0 mg/kg/injection, schedule: Q01DX005 (ip), vehicle: saline with Tween-80): 97 % of control
- T/C (dose: 100.0 mg/kg/injection, schedule: Q01DX005 (ip), vehicle: saline with Tween-80): 97 % of control

Compound: NC(=O)c1c(F)c(F)c(F)c(F)c1F
- T/C (dose: 100.0 mg/kg/injection, schedule: Q01DX001 (ip), vehicle: saline with Tween-80): 107 % of control
- T/C (dose: 200.0 mg/kg/injection, schedule: Q01DX001 (ip), vehicle: saline with Tween-80): 115 % of control
- T/C (dose: 400.0 mg/kg/injection, schedule: Q01DX001 (ip), vehicle: saline with Tween-80): 110 % of control

Compound: CCC(C)C(NC(=O)OCc1ccccc1)C(=O)NC(C(=O)NC(CCC(=O)OC(C)(C)C)C(=O)OC)C(C)C (stereo not drawn) (Cbz-Ile-Val-Glu(OtBu)-OMe; configuration not given here)
- T/C (dose: 100.0 mg/kg/injection, schedule: Q04DX003 (ip), vehicle: saline sonified): 90 % of control
- T/C (dose: 200.0 mg/kg/injection, schedule: Q04DX003 (ip), vehicle: saline sonified): 90 % of control
- T/C (dose: 400.0 mg/kg/injection, schedule: Q04DX003 (ip), vehicle: saline sonified): 95 % of control

Compound: CCSCCSCC
- T/C [2]: 107 % of control
- T/C [3]: 120 % of control
- T/C [4]: 103 % of control
- T/C [5]: 115 % of control
- T/C (dose: 400.0 mg/kg/injection, schedule: Q04DX003 (ip), vehicle: saline): 120 % of control

Compound: O=C1OC(=O)C2C1C(c1ccc(Cl)cc1)N1C3C(=O)OC(=O)C3C(c3ccc(Cl)cc3)N21 (stereo not given)
- T/C [6]: 97 % of control
- T/C [2]: 93 % of control
- T/C [4]: 88 % of control

Compound: CCOC(=O)/C(=N\O)C1=CSC2=NNC(C)(C)N12
- T/C [6]: 95 % of control
- T/C [4]: 92 % of control

Compound: Clc1nc2nnnn2c2ccccc12
- T/C [7]: 94 % of control
- T/C (dose: 40.0 mg/kg/injection, schedule: Q01DX009 (ip), vehicle: saline): 95 % of control

Compound: CCOC(=O)CN(CC)C(=O)NC12CC3CC(CC(C3)C1)C2
- T/C (dose: 100.0 mg/kg/injection, schedule: Q01DX009 (ip), vehicle: Klucel (hydroxypropylcellulose) (HPC)): 100 % of control
- T/C [8]: 103 % of control
- T/C (dose: 400.0 mg/kg/injection, schedule: Q01DX009 (ip), vehicle: Klucel (hydroxypropylcellulose) (HPC)): 102 % of control

Compound: CNC(=S)N/N=C/C(C)=N/NC(=S)NC
- T/C (dose: 1.6 mg/kg/injection, schedule: Q01DX009 (ip), vehicle: Klucel (hydroxypropylcellulose) (HPC)): 113 % of control
- T/C (dose: 3.12 mg/kg/injection, schedule: Q01DX009 (ip), vehicle: Klucel (hydroxypropylcellulose) (HPC)): 104 % of control
- T/C (dose: 12.5 mg/kg/injection, schedule: Q01DX009 (ip), vehicle: Klucel (hydroxypropylcellulose) (HPC)): 104 % of control
- T/C (dose: 50.0 mg/kg/injection, schedule: Q01DX009 (ip), vehicle: Klucel (hydroxypropylcellulose) (HPC)): 100 % of control
- T/C [8]: 100 % of control
- T/C (dose: 125.0 micrograms/kg/injection, schedule: Q01DX009 (ip), vehicle: saline): 109 % of control
- T/C (dose: 250.0 micrograms/kg/injection, schedule: Q01DX009 (ip), vehicle: saline): 109 % of control
- T/C (dose: 500.0 micrograms/kg/injection, schedule: Q01DX009 (ip), vehicle: saline): 109 % of control
- T/C (dose: 1000.0 micrograms/kg/injection, schedule: Q01DX009 (ip), vehicle: saline): 109 % of control

Compound: CSC/C(=N\Nc1ccc([N+](=O)[O-])cc1[N+](=O)[O-])c1ccccc1
- T/C (dose: 1.56 mg/kg/injection, schedule: Q01DX001 (ip), vehicle: saline with Tween-80): 100 % of control
- T/C (dose: 3.13 mg/kg/injection, schedule: Q01DX001 (ip), vehicle: saline with Tween-80): 104 % of control
- T/C (dose: 6.25 mg/kg/injection, schedule: Q01DX001 (ip), vehicle: saline with Tween-80): 114 % of control

Compound: COc1ccc(C(=O)CCCCl)c(OC)c1
- T/C [9]: 100 % of control
- T/C [10]: 100 % of control
- T/C [11]: 90 % of control

Compound: COc1cc(Cc2nccc3cc(OC)c(OC)cc23)c(C(C)=O)c(OC)c1
- T/C (dose: 10.0 mg/kg/injection, schedule: Q01DX009 (ip), vehicle: saline): 157 % of control and 190 % of control
- T/C [7]: 163 % of control and 170 % of control
- T/C (dose: 25.0 mg/kg/injection, schedule: Q04DX003 (ip), vehicle: saline): 154 % of control
- T/C (dose: 50.0 mg/kg/injection, schedule: Q04DX003 (ip), vehicle: saline): 157 % of control
- T/C [3]: 203 % of control and 206 % of control
- T/C [5]: 93 % of control

Compound: CC(C)CC(C(=O)NC1C(=O)NC(Cc2c[nH]c3ccccc23)C(=O)N/C=C\c2ccc(cc2)OC1C(C)C)N(C)C (stereo not given)
- T/C (dose: 0.1 mg/kg/injection, schedule: Q01DX010 (ip), vehicle: alcohol): 100 % of control
- T/C (dose: 0.2 mg/kg/injection, schedule: Q01DX010 (ip), vehicle: alcohol): 101 % of control
- T/C (dose: 0.8 mg/kg/injection, schedule: Q01DX010 (ip), vehicle: alcohol): 123 % of control
- T/C (dose: 1.0 mg/kg/injection, schedule: Q01DX009 (ip), vehicle: steriod suspending solution): 110 % of control
- T/C (dose: 2.0 mg/kg/injection, schedule: Q01DX009 (ip), vehicle: steriod suspending solution): 115 % of control
- T/C (dose: 4.0 mg/kg/injection, schedule: Q01DX009 (ip), vehicle: steriod suspending solution): 105 % of control
- T/C (dose: 8.0 mg/kg/injection, schedule: Q01DX009 (ip), vehicle: steriod suspending solution): 100 % of control

Compound: Fc1ccc(-c2n[nH]c3c2CCCc2ccccc2-3)cc1
- T/C [9]: 114 % of control
- T/C [10]: 114 % of control
- T/C [11]: 123 % of control

Compound: CCCC1(C)NC(=O)NC1=O (stereo not given)
- T/C [9]: 104 % of control
- T/C [10]: 113 % of control
- T/C [11]: 90 % of control

Compound: O=[N+]([O-])c1ccc(Cl)nc1
- T/C [4]: 95 % of control

Compound: Cc1ccc(-c2nn3c(-c4ccccc4)nnc3o2)cc1
- T/C [9]: 110 % of control
- T/C [10]: 115 % of control
- T/C [11]: 105 % of control

Compound: CN1CC=Nc2c1nc(N)[nH]c2=O
- T/C [1]: 109 % of control
- T/C [12]: 107 % of control
- T/C [6]: 102 % of control

Compound: O=[N+]([O-])c1cc([N+](=O)[O-])c2ccccc2c1NS(=O)(=O)/C=C/c1ccccc1
- T/C [12]: 104 % of control
- T/C [6]: 112 % of control
- T/C [2]: 111 % of control

Compound: CC1=C(C#N)C(C)(C)C(C#N)=C(C)N1C
- T/C (dose: 25.0 mg/kg/injection, schedule: Q01DX009 (ip), vehicle: distilled water + Tween-80): 88 % of control
- T/C (dose: 50.0 mg/kg/injection, schedule: Q01DX009 (ip), vehicle: distilled water + Tween-80): 100 % of control
- T/C (dose: 100.0 mg/kg/injection, schedule: Q01DX009 (ip), vehicle: distilled water + Tween-80): 104 % of control
